Data on 25 molecules can be found in ChEMBL document CHEMBL1201862, “PubChem BioAssay data set” (2004).

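48-hour exposure; five concentrations; linearly interpolated endpoints. GI50: concentration for 50% inhibition of growth.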 Active and inactive are the calls of the source. Rule as the data show it: active = GI50 up to about 1.1 µM and inactive = higher. Some results are limits rather than exact numbers.

Common to all, as to experiment: DTP human tumour cell line panel, 48 h
The subject of experiment [1] is 786-0.
The subject of experiment [2] is BT-549.
For experiment [3], the system named is MDA-MB-231.
The subject of experiment [4] is MDA-N.
Experiment [5] deals with PC-3.
The subject of experiment [6] is T47D.
In experiment [7] the test system is DLD-1.
In experiment [8] the test system is LXFL 529.
In experiment [9] the test system is RXF 631.

For the molecule `C=CS(=O)(=O)c1c2cc(OC)ccc2nc2ccc(OC)cc12`, the GI50 is 2.37 µM (inactive) in [1]; 10.5 µM (inactive) in experiment [2]; 15.5 µM (inactive) in experiment [3]; 3.5 µM (inactive) in experiment [4]; 7.29 µM (inactive) in [5]; 3.43 µM (inactive) in experiment [6].

As for `Clc1nc(Cl)nc(Nc2cccc3ccccc23)n1`, the GI50 in experiment [3], in experiment [4], in experiment [5] and in experiment [6] was > 10 µM (inactive) in each case.

Consider `COc1ccc(C(=O)Cc2ccc(Cl)cc2)cc1OC`, for which the GI50 in [7], in experiment [8] and in experiment [9] was > 100 µM (inactive) in each case.

Turning to `CN(C)CCNC(=O)c1cccc2[nH]c(-c3ccc(Cl)cc3)nc12`, the GI50 in [7] is 4.8 µM (inactive).

Regarding `Cc1cc(Cl)ccc1NC1=NC(=O)C(CC(=O)Nc2cccc(Cl)c2)S1` (centres undefined), the GI50 in experiment [1] is 46.8 µM (inactive); in [7] it was 21.7 µM (inactive); in [8], 39.9 µM (inactive).

For `C=CCOC1=C(OCC=C)C(C2COC(C)(C)O2)OC1=O` (centres undefined), the GI50 in [1] was 67 µM (inactive); in experiment [2], > 100 µM (inactive); in experiment [3] it was > 100 µM (inactive); in experiment [4] it was > 100 µM (inactive); in [5] it was > 100 µM (inactive); in experiment [6], > 100 µM (inactive).

For the molecule `Fc1ccc(C(OCCN2CCC3CCC(C2)N3Cc2cc3ccccc3[nH]2)c2ccc(F)cc2)cc1` (centres undefined), the GI50 in experiment [1] was 1.65 µM (inactive); in [2], 2.32 µM (inactive); in experiment [3] it was 1.7 µM (inactive); in experiment [4], 1.73 µM (inactive); in [5] it was 1.7 µM (inactive); in experiment [6], 1.59 µM (inactive).

Consider `O=C1C(Cl)=C(c2ccc([N+](=O)[O-])cc2)C(=O)c2c(O)cccc21`, for which the GI50 in [1] is 3.15 µM (inactive); in experiment [2] it was 1.03 µM (active); in [7] it was 1.16 µM (inactive); in [8], 0.273 µM (active); in experiment [3], 1.03 µM (active); in experiment [4], 2.49 µM (inactive). The GI50 in experiment [5] is 2.12 µM (inactive); in experiment [6], 2.37 µM (inactive).

As to `O=C1CCCCC[C@]12SC[C@H]1CON=C12`, the GI50 was 34 µM (inactive) in experiment [1], 39.2 µM (inactive) in [2] and 12.5 µM (inactive) in experiment [4].

`CC(=O)NNc1nc(C)c(C(=O)NNC(=O)C(=O)Nc2cccc(C(C)=O)c2)s1`: the GI50 in [7] is 28.1 µM (inactive); in [9] it was 26.6 µM (inactive).

As for `O=C1NCN(c2ccccc2)C12CCN(CCCN1CCN(CCOC(c3ccc(F)cc3)c3ccc(F)cc3)CC1)CC2`, the GI50 was 1.63 µM (inactive) in [1]; 2.64 µM (inactive) in experiment [2]; 2.15 µM (inactive) in [3]; 1.82 µM (inactive) in experiment [4]; 3.05 µM (inactive) in [5]; 1.58 µM (inactive) in [6].

As to `CC1(C)C(=O)c2ccccc2OC1N1CCN(C2Oc3ccccc3C(=O)C2(C)C)CC1` (centres undefined), the GI50 in [2] was > 100 µM (inactive); in experiment [3], 94.6 µM (inactive); in [4], > 100 µM (inactive); in experiment [5], > 100 µM (inactive); in experiment [6], 83.4 µM (inactive).

Regarding `CC(NCCS(=O)(=O)O)C(=O)O` (centres undefined), the GI50 in experiment [7] was > 100 µM (inactive).

In the case of `O=C1NCN(c2ccccc2)C12CCN(CCCSc1ccc(F)cc1)CC2`, the GI50 in experiment [1] is 24.3 µM (inactive); in experiment [3] it was 5.52 µM (inactive); in experiment [5], 47.2 µM (inactive); in experiment [6], 28.6 µM (inactive).

For the molecule `C=CCN(N=O)C(=O)N(CCC)CCCCC(NC(C)=O)C(=O)NCc1ccccc1` (centres undefined), the GI50 was > 100 µM (inactive) in experiment [1], 62.5 µM (inactive) in experiment [8] and > 100 µM (inactive) in [9].

As for `COC(=O)C1CCC(=O)N1C(=O)Cc1ccc(OC)cc1` (centres undefined), in experiment [8], the GI50 is > 100 µM (inactive).

In the case of `CC(C)C1NC(=O)CC(c2ccccc2)N(N=O)C1c1ccccc1` (centres undefined), in experiment [7], the GI50 was > 100 µM (inactive).

Consider `Nc1nc(N)c2c(n1)NC(=O)c1c(c3ccccc3n1Cc1ccc(Cl)cc1)C2`, for which the GI50 was 24.2 µM (inactive) in experiment [2], 16.6 µM (inactive) in experiment [4], 23 µM (inactive) in experiment [5] and 16.8 µM (inactive) in experiment [6].

`c1ccc(/N=C2\S/C(=N\C3CCCCC3)N(C3CCCCC3)\C2=N/c2ccccc2)cc1`: the GI50 in experiment [2] is > 100 µM (inactive); in experiment [3], > 100 µM (inactive); in [4], > 100 µM (inactive); in experiment [5] it was 67.1 µM (inactive); in [6], > 100 µM (inactive).

In the case of `CO/C=C1\OC(=O)C=C1OC`, the GI50 in [7] was > 100 µM (inactive).

Consider `c1ccc(COC2(OCc3ccccc3)CC3OC2C2NN=NC32)cc1` (centres undefined), for which the figures for the GI50 in experiment [1], in experiment [7] and in experiment [8] were 20 µM (inactive), 15.8 µM (inactive) and 15.3 µM (inactive), respectively.

As for `CC1(C)COC(/C=C/C2=NC(C)(C)CO2)=N1`, the GI50 is 23.1 µM (inactive) in experiment [2]; 19.7 µM (inactive) in experiment [3]; 20.1 µM (inactive) in [4]; 17.5 µM (inactive) in experiment [5]; 8.75 µM (inactive) in experiment [6].

Turning to `O=C(O)CNS(=O)(=O)c1ccc(NC(=O)Nc2ccccc2)cc1`, in experiment [7], the GI50 was > 100 µM (inactive).

Regarding `COc1ccc(C2C(Cl)C(=O)N2NC(=O)c2ccccc2O)cc1` (centres undefined), the GI50 in experiment [8] was > 100 µM (inactive).

Regarding `Cc1c2cc[n+](Cc3ccc(I)cc3)cc2c(C)c2c1[nH]c1ccccc12`, the GI50 in experiment [7] was 0.94 µM (active).
